Measurements reported in patent US6737383B1, “Herbicidal oxadiazolidines” (priority 1999, dated 2004).

Columns and labels:
[1] = system: bedstraw; assay: Test B pre/postemergence bedstraw; format: in vivo, Galium aparine
Method in brief: (§1)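 Herbicidal effect was estimated by eye on a ten-point control scale after plants spent twelve to sixteen days in a greenhouse following soil or foliar treatment. Foliar sprays targeted plants at one to four leaves; all doses were formulated in a non-phytotoxic solvent with surfactant.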

[2] = system: blackgrass; assay: Test B pre/postemergence blackgrass; format: in vivo, Alopecurus myosuroides
Method in brief: as §1

[3] = system: surinam grass; assay: Test B pre/postemergence surinam grass; format: in vivo, Brachiaria decumbens
Method in brief: as §1

[4] = system: cocklebur; assay: Test B pre/postemergence cocklebur; format: in vivo, Xanthium strumarium
Method in brief: as §1

[5] = system: corn; assay: Test B pre/postemergence corn; format: in vivo, Zea mays
Method in brief: as §1

[6] = system: crabgrass; assay: Test B pre/postemergence crabgrass; format: in vivo, Digitaria sanguinalis
Method in brief: as §1

[7] = system: pigweed; assay: Test B pre/postemergence pigweed; format: in vivo, Amaranthus retroflexus
Method in brief: as §1

[8] = system: rape; assay: Test B pre/postemergence rape; format: in vivo, Brassica napus
Method in brief: as §1

[9] = system: soybean; assay: Test B pre/postemergence soybean; format: in vivo, Glycine max
Method in brief: as §1

[10] = system: sugar beet; assay: Test B pre/postemergence sugar beet; format: in vivo, Beta vulgaris
Method in brief: as §1

[11] = system: velvetleaf; assay: Test B pre/postemergence velvetleaf; format: in vivo, Abutilon theophrasti
Method in brief: as §1

[12] = system: wheat; assay: Test B pre/postemergence wheat; format: in vivo, Triticum aestivum
Method in brief: as §1

[13] = system: wild oat; assay: Test B pre/postemergence wild oat; format: in vivo, Avena fatua
Method in brief: as §1

[14] = system: purple nutsedge; assay: Test B pre/postemergence purple nutsedge; format: in vivo, Cyperus rotundus
Method in brief: as §1

[15] = system: smallflower flatsedge; assay: Test B flood test smallflower flatsedge; format: in vivo, Cyperus difformis
Method in brief: (§2)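 Plants were grown to the 2-leaf stage before treatment with test chemical, then held in a greenhouse for twelve to sixteen days. Injury was visually rated against untreated controls on a 0–10 scale, where 0 is no effect and 10 is complete control.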

[16] = system: bamyardgrass; assay: Test B flood test barnyardgrass; format: in vivo, Echinochloa crus-galli
Method in brief: as §2

[17] = Preemergence, Rate 31 g/ha, visual rating, scale 0 to 10 (0 no effect, 10 complete control)
[18] = Preemergence, Rate 62 g/ha, scale of 0 to 10 where 0 is no effect and 10 is complete control
[19] = Preemergence, Rate 250 g/ha, scale of 0 to 10 where 0 is no effect and 10 is complete control
[20] = Rate 31 g/ha, Postemergence, scale 0 to 10
[21] = Rate 62 g/ha, Postemergence, scale of 0 to 10 where 0 is no effect and 10 is complete control
[22] = Rate 125 g/ha, Postemergence, scale 0 to 10
[23] = Rate 125 g/ha, Preemergence, scale of 0 to 10 where 0 is no effect and 10 is complete control
[24] = Rate 62 g/ha, headed Pre-emergence (flood test species), scale 0 to 10 (0 no effect, 10 complete control)
[25] = Rate 250 g/ha, Pre-emergence, flood-test species, scale 0 to 10, 0 is no effect, 10 is complete control

## CC(C)N(C(=O)n1oc(=O)n(CC#C[Si](C)(C)C)c1=O)c1ccc(F)cc1 [Compound 213]
[1]; [17]
  Bedstraw plant response rating: 0
[1]; [18]
  Bedstraw plant response rating: 0
[1]; [19]
  Bedstraw plant response rating: 0
[1]; [20]
  Bedstraw plant response rating: 0
[1]; [21]
  Bedstraw plant response rating: 0
[1]; [22]
  Bedstraw plant response rating: 3
[1]; [23]
  Bedstraw plant response rating: 0
[1]; Rate 250 g/ha, Postemergence
  Plant response rating (0 to 10; 0 is no effect, 10 is complete control), Bedstraw: 3
[2]; [17]
  Blackgrass plant response rating: 0
[2]; [18]
  Blackgrass plant response rating: 0
[2]; [19]
  Blackgrass plant response rating: 0
[2]; [20]
  Blackgrass plant response rating: 0
[2]; [21]
  Blackgrass plant response rating: 0
[2]; [22]
  Blackgrass plant response rating: 0
[2]; [23]
  Blackgrass plant response rating: 0
[2]; Rate 250 g/ha, Postemergence
  Plant response rating (0 to 10; 0 is no effect, 10 is complete control), Blackgrass: 2
[3]; [17]
  B. signalgrass plant response rating: 0
[3]; [18]
  B. signalgrass plant response rating: 0
[3]; Preemergence, Rate 250 g/ha, scale 0 to 10, 0 is no effect, 10 is complete control
  B. signalgrass plant response rating: 0
[3]; [20]
  B. signalgrass plant response rating: 0
[3]; [21]
  B. signalgrass plant response rating: 0
[3]; Rate 125 g/ha, Postemergence, scale 0 (no effect) to 10 (complete control)
  B. signalgrass plant response rating: 0
[3]; [23]
  B. signalgrass plant response rating: 0
[3]; Rate 250 g/ha, Postemergence
  Plant response rating (0 to 10; 0 is no effect, 10 is complete control), B. signalgrass: 2
[4]; [18]
  Cocklebur plant response rating: 0
[4]; [20]
  Cocklebur plant response rating: 0
[4]; [21]
  Cocklebur plant response rating: 0
[4]; [22]
  Cocklebur plant response rating: 0
[4]; [23]
  Cocklebur plant response rating: 0
[4]; Rate 250 g/ha, Postemergence
  Plant response rating (0 to 10; 0 is no effect, 10 is complete control), Cocklebur: 0
[5]; [17]
  Corn plant response rating: 0
[5]; [18]
  Corn plant response rating: 0
[5]; [19]
  Corn plant response rating: 0
[5]; [20]
  Corn plant response rating: 0
[5]; [21]
  Corn plant response rating: 0
[5]; [22]
  Corn plant response rating: 0
[5]; [23]
  Corn plant response rating: 0
[5]; Rate 250 g/ha, Postemergence
  Plant response rating (0 to 10; 0 is no effect, 10 is complete control), Corn: 0
[6]; [17]
  Crabgrass plant response rating: 0
[6]; [18]
  Crabgrass plant response rating: 0
[6]; [19]
  Crabgrass plant response rating: 3
[6]; [20]
  Crabgrass plant response rating: 0
[6]; [21]
  Crabgrass plant response rating: 0
[6]; [22]
  Crabgrass plant response rating: 0
[6]; [23]
  Crabgrass plant response rating: 0
[6]; Rate 250 g/ha, Postemergence
  Plant response rating (0 to 10; 0 is no effect, 10 is complete control), Crabgrass: 2
[7]; [17]
  Redroot pigweed plant response rating: 0
[7]; [18]
  Redroot pigweed plant response rating: 0
[7]; [19]
  Redroot pigweed plant response rating: 5
[7]; [20]
  Redroot pigweed plant response rating: 0
[7]; [21]
  Redroot pigweed plant response rating: 5
[7]; [22]
  Redroot pigweed plant response rating: 7
[7]; [23]
  Redroot pigweed plant response rating: 4
[7]; Rate 250 g/ha, Postemergence
  Plant response rating (0 to 10; 0 is no effect, 10 is complete control), Redroot pigweed: 7
[8]; [17]
  Rape plant response rating: 0
[8]; [18]
  Rape plant response rating: 0
[8]; [19]
  Rape plant response rating: 0
[8]; [20]
  Rape plant response rating: 0
[8]; [21]
  Rape plant response rating: 0
[8]; [22]
  Rape plant response rating: 2
[8]; [23]
  Rape plant response rating: 0
[8]; Rate 250 g/ha, Postemergence
  Plant response rating (0 to 10; 0 is no effect, 10 is complete control), Rape: 3
[9]; [17]
  Soybean plant response rating: 0
[9]; [18]
  Soybean plant response rating: 0
[9]; [19]
  Soybean plant response rating: 0
[9]; [21]
  Soybean plant response rating: 1
[9]; [22]
  Soybean plant response rating: 1
[9]; [23]
  Soybean plant response rating: 0
[9]; Rate 250 g/ha, Postemergence
  Plant response rating (0 to 10; 0 is no effect, 10 is complete control), Soybean: 2
[10]; [17]
  Sugarbeets plant response rating: 0
[10]; [18]
  Sugarbeets plant response rating: 0
[10]; [19]
  Sugarbeets plant response rating: 0
[10]; [21]
  Sugarbeets plant response rating: 3
[10]; [22]
  Sugarbeets plant response rating: 3
[10]; [23]
  Sugarbeets plant response rating: 0
[10]; Rate 250 g/ha, Postemergence
  Plant response rating (0 to 10; 0 is no effect, 10 is complete control), Sugarbeets: 4
[11]; [17]
  Velvetleaf plant response rating: 0
[11]; [18]
  Velvetleaf plant response rating: 0
[11]; [19]
  Velvetleaf plant response rating: 0
[11]; [21]
  Velvetleaf plant response rating: 0
[11]; [22]
  Velvetleaf plant response rating: 0
[11]; [23]
  Velvetleaf plant response rating: 0
[11]; Rate 250 g/ha, Postemergence
  Plant response rating (0 to 10; 0 is no effect, 10 is complete control), Velvetleaf: 0
[12]; [17]
  Wheat plant response rating: 0
[12]; [18]
  Wheat plant response rating: 0
[12]; [19]
  Wheat plant response rating: 0
[12]; [21]
  Wheat plant response rating: 0
[12]; [22]
  Wheat plant response rating: 0
[12]; [23]
  Wheat plant response rating: 0
[12]; Rate 250 g/ha, Postemergence
  Plant response rating (0 to 10; 0 is no effect, 10 is complete control), Wheat: 2
[13]; [17]
  Wild oats plant response rating: 0
[13]; [18]
  Wild oats plant response rating: 0
[13]; [19]
  Wild oats plant response rating: 0
[13]; [21]
  Wild oats plant response rating: 0
[13]; [22]
  Wild oats plant response rating: 0
[13]; [23]
  Wild oats plant response rating: 0
[13]; Rate 250 g/ha, Postemergence
  Plant response rating (0 to 10; 0 is no effect, 10 is complete control), Wild oats: 2
[14]; [18]
  Nutsedge plant response rating: 0
[14]; [20]
  Nutsedge plant response rating: 0
[14]; [21]
  Nutsedge plant response rating: 0
[14]; [22]
  Nutsedge plant response rating: 0
[14]; [23]
  Nutsedge plant response rating: 0
[14]; Rate 250 g/ha, Postemergence
  Plant response rating (0 to 10; 0 is no effect, 10 is complete control), Nutsedge: 0
[15]; [24]
  S. Flatsedge plant response rating: 0
[15]; [25]
  S. Flatsedge plant response rating: 0
[16]; [24]
  Barnyardgrass plant response rating: 0
[16]; [25]
  Barnyardgrass plant response rating: 0
